Tests used:
[1] = system: C2BBe1 (Colorectal Carcinoma); assay: combination Emax (second highest fraction inhibited in the dose matrix, 72 h); higher = more inhibition; extreme values may be limits of the assay
Summary of the method: (§1)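 Bliss excess equals the observed combination effect minus the expected value EA + EB − EA·EB, where EA and EB are the effects of each agent alone. Combination Emax is the second-highest inhibition within the matrix. Inhibition was scaled from CellTiter-Glo 2.0 luminescence, with 0 set by vehicle wells and 1 by blank wells, after 72 hours of two-drug dosing of cells plated in 1536-well plates.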

[2] = system: JJN-3 (Plasma Cell Myeloma); assay: as above
Summary of the method: as §1

[3] = system: JURL-MK1 (Chronic Myelogenous Leukemia); assay: as above
Summary of the method: as §1

SK-MEL-24 (Melanoma) [4] = assay: as above
Summary of the method: as §1

[5] = system: NTERA-2-cl-D1 (Other Solid Carcinomas); assay: as above
Summary of the method: as §1

[6] = system: SW1463 (Colorectal Carcinoma); assay: as above
Summary of the method: as §1

[7] = system: OVKATE (Ovarian Carcinoma); assay: as above
Summary of the method: as §1

HT-144 (Melanoma) = assay: as above
Summary of the method: as §1

[8] = system: Daudi (Burkitt's Lymphoma); assay: Bliss excess, mean over the matrix (fraction); higher = more synergy
Summary of the method: as §1

SK-MEL-24 (Melanoma) [9] = assay: as above
Summary of the method: as §1

[10] = system: SBC-3 (Small Cell Lung Carcinoma); assay: as above
Summary of the method: as §1

[11] = system: NCI-H1648 (Lung Adenocarcinoma); assay: as above
Summary of the method: as §1

[12] = system: RS4-11 (B-Lymphoblastic Leukemia); assay: as above
Summary of the method: as §1

[13] = system: RPMI-8402 (T-Lymphoblastic Leukemia); assay: as above
Summary of the method: as §1

C32 (Melanoma) = assay: as above
Summary of the method: as §1

SK-N-DZ (Neuroblastoma) = assay: as above
Summary of the method: as §1

[14] = system: NCI-H2023 (Non-Small Cell Lung Carcinoma); assay: as above
Summary of the method: as §1

[15] = system: NCI-H1435 (Non-Small Cell Lung Carcinoma); assay: as above
Summary of the method: as §1

[16] = system: OVKATE (Ovarian Carcinoma); assay: as above
Summary of the method: as §1

[17] = system: NCI-H1944 (Lung Adenocarcinoma); assay: as above
Summary of the method: as §1

SMILES	combination Emax [1]	combination Emax [2]	combination Emax [3]	combination Emax (SK-MEL-24 (Melanoma) [4])	combination Emax [5]	combination Emax [6]	combination Emax [7]	combination Emax (HT-144 (Melanoma))	Bliss excess [8]	Bliss excess (SK-MEL-24 (Melanoma) [9])	Bliss excess [10]	Bliss excess [11]	Bliss excess [12]	Bliss excess [13]	Bliss excess (C32 (Melanoma))	Bliss excess (SK-N-DZ (Neuroblastoma))	Bliss excess [14]	Bliss excess [15]	Bliss excess [16]	Bliss excess [17]
CCN(CCO)CCCOc1ccc2c(Nc3cc(CC(=O)Nc4cccc(F)c4)[nH]n3)ncnc2c1 [AZD2811] + O=C(c1cc(Cc2n[nH]c(=O)c3ccccc23)ccc1F)N1CCN(C(=O)C2CC2)CC1 [Olaparib] (first compound max 1 µM, 7x7, partner max 10 µM)	0.131	0.336	0.688	0.225	0.65	0.226	0.239	0.309	0.104	-0.0339	0.0475	-0.0179	0.0327	-0.0279	-0.0056	-0.0696	-0.0737	0.0111	-0.0481	0.0069
CN(CCO)CC[C@H](CSc1ccccc1)Nc1ccc(S(=O)(=O)NC(=O)c2ccc(N3CCC([C@@H](O)c4ccccc4-c4ccc(Cl)cc4)CC3)cc2)cc1S(=O)(=O)C(F)(F)F [AZD4320] + C=CCn1c(=O)c2cnc(Nc3ccc(N4CCN(C)CC4)cc3)nc2n1-c1cccc(C(C)(C)O)n1 [AZD1775] (first compound max 1 µM, partner max 1 µM)	0.346	0.662	1	0.582	0.775	0.468	0.528	0.654	-0.0249	0.001	-0.0172	-0.0353	0.0285	0.0269	0.108	0.0351	-0.0108	0.0482	0.0271	0.0312
CN(CCO)CC[C@H](CSc1ccccc1)Nc1ccc(S(=O)(=O)NC(=O)c2ccc(N3CCC([C@@H](O)c4ccccc4-c4ccc(Cl)cc4)CC3)cc2)cc1S(=O)(=O)C(F)(F)F [AZD4320] + CN(C)CCCOc1ccc(-c2ccc3ncc4c(c3c2)n(C2CCOCC2)c(=O)n4C)cn1 [AZD0156] (first compound max 1 µM, 7x7, partner max 1 µM)	0.188	0.445	0.825	0.252	0.416	0.233	0.29	0.219	-0.0133	-0.0838	-0.0809	-0.0326	-0.0209	0.0188	-0.0182	0.0238	-0.0922	-0.0269	-0.104	-0.0289
CN(CCO)CC[C@H](CSc1ccccc1)Nc1ccc(S(=O)(=O)NC(=O)c2ccc(N3CCC([C@@H](O)c4ccccc4-c4ccc(Cl)cc4)CC3)cc2)cc1S(=O)(=O)C(F)(F)F [AZD4320] + Cn1cnc2c(F)c(Nc3ccc(Br)cc3Cl)c(C(=O)NOCCO)cc21 [Selumetinib] (first compound max 1 µM, 7x7, partner max 3 µM)	0.587	0.731	0.999	0.761	0.987	0.534	0.501	0.834	0.0037	-0.0168	-0.0148	0.0177	-0.0125	-0.0351	0.0196	-0.0273	0.0178	0.0507	-0.0247	0.0427
COc1nnc2ccc(N3CCC(c4ccc(OCCN5CCN(C)C(=O)[C@H]5C)cc4)CC3)nn12 [AZD5153] + C=CCn1c(=O)c2cnc(Nc3ccc(N4CCN(C)CC4)cc3)nc2n1-c1cccc(C(C)(C)O)n1 [AZD1775] (first compound max 1 µM, partner max 1 µM)	0.547	0.873	0.998	0.604	0.672	0.478	0.344	0.651	-0.0642	-0.0421	-0.0111	-0.0816	0.0184	-0.0212	-0.0426	-0.0084	0.0244	0.0179	-0.0373	0.0333
COc1nnc2ccc(N3CCC(c4ccc(OCCN5CCN(C)C(=O)[C@H]5C)cc4)CC3)nn12 [AZD5153] + CC1(C)CCC(CN2CCN(c3ccc(C(=O)NS(=O)(=O)c4ccc(NCC5CCOCC5)c([N+](=O)[O-])c4)c(Oc4cnc5[nH]ccc5c4)c3)CC2)=C(c2ccc(Cl)cc2)C1 [Venetoclax] (first compound max 1 µM, 7x7, partner max 1 µM)	0.378	0.892	0.873	0.474	0.654	0.581	0.35	0.417	-0.0458	-0.0685	-0.0545	-0.062	-0.0179	0.0135	-0.0383	0.0059	-0.0832	-0.0143	-0.0037	-0.0824

— the supplement of paper PMC11061612
